O=[N+]([O-])c1cn[nH]c1[N+](=O)[O-]
solubility (mole fraction)
Settings | 298.15 K | 303.15 K | 308.15 K | 313.15 K | 318.15 K | 323.15 K | 328.15 K | 333.15 K | 338.15 K
in anisole | 0.043 | 0.058 | 0.0778 | 0.103 | 0.138 | 0.181 | 0.237 | 0.313 | 0.411
in benzene | 0.00171 | 0.00211 | 0.00264 | 0.00317 | 0.00389 | 0.00482 | 0.00585 | 0.00742 | 0.00936
in chlorobenzene | 0.0012 | 0.00147 | 0.0018 | 0.00218 | 0.00266 | 0.00328 | 0.00402 | 0.00494 | 0.00609
in isopropanol | 0.388 | 0.413 | 0.441 | 0.472 | 0.509 | 0.547 | 0.588 | 0.642 | 0.7
in n-butanol | 0.318 | 0.348 | 0.387 | 0.411 | 0.444 | 0.489 | 0.528 | 0.586 | 0.648
in toluene | 0.00201 | 0.0024 | 0.00291 | 0.00345 | 0.00411 | 0.00499 | 0.00601 | 0.00725 | 0.00877

Source: BigSolDB 2.1
